Patent publication US8101766B2, “Crystalline form of a biphenyl compound” (Theravance, Inc., priority 2004, dated 2012)

Tests used:
Assay type in all cases: cell-based
β2 adrenergic receptor [1] = target: T1, β2 adrenergic receptor (Homo sapiens, UniProt P07550); assay: Whole-cell cAMP Flashplate assay in CHO cell lines heterologously expressing human β2 adrenergic receptor; parameters: expressed in transfected cells; details: CHO-K1 cells expressing cloned human β2
Protocol: Cells were rinsed with PBS and detached in dPBS (Dulbecco's Phosphate Buffered Saline, without CaCl2 and MgCl2) containing 2 mM EDTA or Trypsin-EDTA solution (0.05% trypsin/0.53 mM EDTA). […] Test compounds (10 mM in DMSO) were diluted into PBS containing 0.1% BSA in Beckman Biomek-2000 and tested at 11 different concentrations ranging from 100 μM to 1 pM. […] Data were analyzed by nonlinear regression analysis with the GraphPad Prism Software package (GraphPad Software, Inc., San Diego, Calif.) with the sigmoidal equation.

hM1 receptor = target: T2, hM1 receptor (Homo sapiens, UniProt P11229); assay: Blockade of agonist-mediated calcium release via FLIPR assay (hM1); details: CHO cells stably expressing hM1
T2 construct: expressed in transfected cells
T2 sequence (P11229 1-460): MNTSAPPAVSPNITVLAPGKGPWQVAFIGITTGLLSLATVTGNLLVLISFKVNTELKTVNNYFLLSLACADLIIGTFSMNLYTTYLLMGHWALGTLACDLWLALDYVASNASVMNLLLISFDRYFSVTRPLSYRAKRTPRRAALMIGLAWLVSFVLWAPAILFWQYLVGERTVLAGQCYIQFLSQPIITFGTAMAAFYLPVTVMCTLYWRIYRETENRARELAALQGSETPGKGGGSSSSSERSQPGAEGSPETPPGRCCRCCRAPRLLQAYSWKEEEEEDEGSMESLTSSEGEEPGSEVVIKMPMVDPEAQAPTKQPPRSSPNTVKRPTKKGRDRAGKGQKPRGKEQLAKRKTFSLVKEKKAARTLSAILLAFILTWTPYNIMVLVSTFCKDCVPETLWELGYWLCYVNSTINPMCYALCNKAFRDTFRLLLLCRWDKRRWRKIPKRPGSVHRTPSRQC
Source text: (§1) B. Blockade of Agonist-Mediated Calcium Release Via FLIPR Assays
(§2) Muscarinic receptor subtypes (M1, M3 and M5 receptors), which couple to Gq proteins, activate the phospholipase C (PLC) pathway upon agonist binding to the receptor. As a result, activated PLC hydrolyzes phosphatyl inositol diphosphate (PIP2) to diacylglycerol (DAG) and phosphatidyl-1,4,5-triphosphate (IP3), which in turn generates calcium release from intracellular stores, i.e., endoplasmic and sarcoplasmic reticulum. […] This fluorescence event is measured in real time by the FLIPR, which detects the change in fluorescence from a monolayer of cells cloned with human M1 and M3, and chimpanzee M5 receptors. Antagonist potency can be determined by the ability of antagonists to inhibit agonist-mediated increases in intracellular calcium. […]
(§3) To determine antagonist potency, the dose-dependent stimulation of intracellular Ca^2+ release for oxotremorine was first determined so that antagonist potency can later be measured against oxotremorine stimulation at an EC90 concentration. […]
(§4) The parameters used for the FLIPR were: exposure length of 0.4 seconds, laser strength of 0.5 watts, excitation wavelength of 488 nm, and emission wavelength of 550 nm. Baseline was determined by measuring the change in fluorescence for 10 seconds prior to addition of agonist. […]

hM3 receptor = target: T3, hM3 receptor (Homo sapiens, UniProt P20309); assay: Blockade of agonist-mediated calcium release via FLIPR assay (hM3); details: CHO cells stably expressing hM3
T3 construct: expressed in transfected cells
T3 sequence (P20309 whole entry): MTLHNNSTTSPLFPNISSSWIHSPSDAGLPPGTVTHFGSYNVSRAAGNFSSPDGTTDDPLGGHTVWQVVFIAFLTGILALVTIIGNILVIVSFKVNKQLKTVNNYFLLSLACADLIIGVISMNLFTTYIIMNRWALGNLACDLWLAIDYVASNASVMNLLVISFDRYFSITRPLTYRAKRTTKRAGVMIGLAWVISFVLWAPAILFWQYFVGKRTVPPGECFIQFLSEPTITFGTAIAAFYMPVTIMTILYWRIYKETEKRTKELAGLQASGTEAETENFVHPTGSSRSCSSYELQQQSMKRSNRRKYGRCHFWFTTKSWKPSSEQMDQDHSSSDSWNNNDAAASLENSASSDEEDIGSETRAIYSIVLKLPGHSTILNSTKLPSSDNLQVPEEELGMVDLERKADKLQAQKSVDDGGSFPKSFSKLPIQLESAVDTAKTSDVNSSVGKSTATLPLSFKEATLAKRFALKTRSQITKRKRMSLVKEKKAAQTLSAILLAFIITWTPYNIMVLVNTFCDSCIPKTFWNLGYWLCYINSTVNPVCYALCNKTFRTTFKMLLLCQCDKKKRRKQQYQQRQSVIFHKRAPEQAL
Source text: as §1, §2, §3, §4

β2 adrenergic receptor [2] = target: T1, β2 adrenergic receptor; assay: Whole-cell cAMP Flashplate assay with lung epithelial cell line (BEAS-2B) endogenously expressing human β2 adrenergic receptor; parameters: a cell line expressing endogenous levels of the β2 adrenergic receptor, a human lung epithelial cell line (BEAS-2B) was used; host or cells: BEAS-2B human lung epithelial cells; details: BEAS-2B human lung epithelial cell line, endogenous receptor
Protocol: On the day of the assay, cells were rinsed with PBS, lifted by scraping with 5 mM EDTA in PBS, and counted. Cells were pelleted by centrifugation at 1,000 rpm and re-suspended in stimulation buffer pre-warmed to 37° C. at a final concentration of 600,000 cells/mL. Cells were used at a final concentration of 100,000 to 120,000 cells/well in this assay. […] Test compounds were tested in the assay at 11 different concentrations, ranging from 10 μM to 10 pM. Reactions were incubated for 10 min at 37° C. and stopped by addition of 100 μL of ice-cold detection buffer. Plates were sealed, incubated over night at 4° C. and counted the next morning in a Topcount scintillation counter (Packard BioScience Co., Meriden, Conn.). […] Data were analyzed by nonlinear regression analysis with the GraphPad Prism Software package (GraphPad Software, Inc., San Diego, Calif.) using the 4-parameter model for sigmoidal dose-response.

T1 sequence (P07550 whole entry): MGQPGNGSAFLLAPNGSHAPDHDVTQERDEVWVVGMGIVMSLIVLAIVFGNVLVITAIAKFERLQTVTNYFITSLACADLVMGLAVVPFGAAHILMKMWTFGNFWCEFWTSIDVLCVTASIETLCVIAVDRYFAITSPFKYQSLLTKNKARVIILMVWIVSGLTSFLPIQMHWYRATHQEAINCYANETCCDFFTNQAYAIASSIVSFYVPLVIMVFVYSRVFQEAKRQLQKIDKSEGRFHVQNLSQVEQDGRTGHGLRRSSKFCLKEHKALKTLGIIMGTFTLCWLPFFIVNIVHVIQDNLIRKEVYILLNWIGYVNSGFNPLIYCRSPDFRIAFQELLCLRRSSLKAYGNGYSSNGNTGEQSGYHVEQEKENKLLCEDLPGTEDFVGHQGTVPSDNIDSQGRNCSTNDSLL

COc1cc(NC(=O)CCN2CCC(OC(=O)Nc3ccccc3-c3ccccc3)CC2)c(Cl)cc1CNC[C@H](O)c1ccc(O)c2[nH]c(=O)ccc12 [compound of formula I, biphenyl-2-ylcarbamic acid 1-[2-(2-chloro-4-{[(R)-2-hydroxy-2-(8-hydroxy-2-oxo-1,2-dihydroquinolin-5-yl)ethylamino]methyl}-5-methoxyphenylcarbamoyl)ethyl]piperidin-4-yl ester]
< 10 nM: EC50 (β2 adrenergic receptor [1]) | Ki (hM1 receptor) | Ki (hM3 receptor) | EC50 (β2 adrenergic receptor [2])
